# Literature values in patent publication US6622729B1, “Selective photodynamic treatment” (priority 1999, dated 2003).
# Conditions: SnET2 administered in 0.5 and 1 mg/kg doses
smiles,measurement,value
"CCOC(=O)C1=Cc2c3nc(cc4nc(cc5[n-]c(cc6[n-]c2c(C)c6CC)c(C)c5CC)C(C)=C4CC)[C@@H](C)[C@]13CC.[Cl-].[Cl-].[Sn] (racemic) [SnET2, tin ethyl etiopurpurin]",systemic toxicity,no apparent systemic toxicity
